The assay concerns the target Histone deacetylase 1 (Homo sapiens, UniProt Q13547). Nature of the assay: Inhibition of HDAC1 (unknown origin) using 6-carboxyfluorescein peptide as substrate preincubated with compound followed by substrate addition by electrophoretic mobility shift assay.

What is called IC50 is the concentration needed to halve the response being measured.

Histone deacetylase 1, sequence (Q13547 whole entry): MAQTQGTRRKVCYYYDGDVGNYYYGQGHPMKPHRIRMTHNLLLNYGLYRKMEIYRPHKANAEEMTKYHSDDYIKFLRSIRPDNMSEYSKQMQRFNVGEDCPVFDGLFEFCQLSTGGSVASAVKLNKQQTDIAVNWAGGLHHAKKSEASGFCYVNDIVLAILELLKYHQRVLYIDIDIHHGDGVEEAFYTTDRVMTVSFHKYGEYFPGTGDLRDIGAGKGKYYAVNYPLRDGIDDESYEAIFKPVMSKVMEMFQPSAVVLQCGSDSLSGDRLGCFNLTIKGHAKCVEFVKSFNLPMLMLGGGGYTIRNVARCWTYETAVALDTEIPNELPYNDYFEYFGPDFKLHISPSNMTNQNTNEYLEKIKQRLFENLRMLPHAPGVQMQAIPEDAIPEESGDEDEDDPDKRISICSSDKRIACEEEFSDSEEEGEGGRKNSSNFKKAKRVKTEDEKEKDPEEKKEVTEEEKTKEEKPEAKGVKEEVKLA

On to `C=CC(=O)N1CCC(OC(=O)NCc2ccc(C(=O)Nc3ccccc3N)cc2)CC1`, for which the IC50 came to 0.685 µM.
